Experimental findings from patent US7511144B2, “Reverse hydroxamic acid derivatives” (Kaken Pharmaceutical Co., Ltd., priority 2001, dated 2009) are described below.

Read-outs that look alike come from different tables or passages of the source. Some results are limits rather than exact numbers.

What all share (type): biochemical
Assay [1] addresses T1, Human MMP9 (Homo sapiens, UniProt P14780).
T1 construct: purchased Calbiochem 444231
Put plainly: MMP9 inhibition experiment. The note with it: read-out: IC50 value MMP-9.
Procedure: This enzyme solution in amount of 1 μL was diluted to 90 μL with the assay buffer A, which was added to 90 μL of 20 μM fluorescent substrate (Dnp-Pro-Cha-Gly-Cys(Me)-His-Ala-Lys(Nma)-NH2) prepared in the assay buffer B, followed by reaction for 4 hours at 37° C.

Assay [2] addresses T2, Human MMP17 (Homo sapiens, UniProt Q9ULZ9).
T2 construct: purchased Calbiochem 475940
T2 sequence (Q9ULZ9 126-300 limits assumed): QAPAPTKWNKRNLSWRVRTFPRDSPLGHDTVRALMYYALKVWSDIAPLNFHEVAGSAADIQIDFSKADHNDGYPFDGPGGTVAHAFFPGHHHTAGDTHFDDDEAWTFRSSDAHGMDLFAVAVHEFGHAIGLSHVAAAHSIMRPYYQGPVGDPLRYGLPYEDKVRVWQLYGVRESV
Put plainly: MMP17 inhibition test. The conditions noted are these: concentration required for 50% inhibition of enzyme activity; read-out: IC50 value MMP-17.

Assay [3] deals with T3, Human MMP13 (Homo sapiens, UniProt P45452).
T3 construct: purchased Chemicon CC068
Put plainly: MMP13 inhibition experiment.
Procedure: Human MMP13 (Chemicon #CC068) in amount of 90 μL (200 ng) was activated by mixing with 10 μL of 10 mM APMA, followed by reaction for 1 hour at 37° C. This enzyme solution in amount of 0.6 μL was diluted to 90 μL with the assay buffer A, which was added to 90 μL of 20 μM fluorescent substrate (Dnp-Pro-Cha-Gly-Cys(Me)-His-Ala-Lys(Nma)-NH2) prepared in the assay buffer B, followed by reaction for 4 hours at 37° C.

The target in assay [4] is T4, Human MMP1 (Homo sapiens, UniProt P03956).
T4 construct: purchased Calbiochem 444208
T4 sequence (P03956 100-469): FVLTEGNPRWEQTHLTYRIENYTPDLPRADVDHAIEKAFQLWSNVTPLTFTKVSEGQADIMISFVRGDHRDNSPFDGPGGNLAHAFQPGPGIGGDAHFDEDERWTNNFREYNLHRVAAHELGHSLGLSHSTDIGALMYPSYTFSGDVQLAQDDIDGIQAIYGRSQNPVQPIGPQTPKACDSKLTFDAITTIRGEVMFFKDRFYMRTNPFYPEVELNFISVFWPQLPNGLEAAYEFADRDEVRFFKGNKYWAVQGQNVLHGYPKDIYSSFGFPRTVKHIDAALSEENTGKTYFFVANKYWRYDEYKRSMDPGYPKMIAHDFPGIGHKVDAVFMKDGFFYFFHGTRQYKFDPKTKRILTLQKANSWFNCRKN
The experiment in a line: MMP1 inhibition experiment. The note with it: read-out: IC50 value MMP-1.
Procedure: This enzyme solution in amount of 10 μL was diluted to 90 μL with the assay buffer A, which was added to 90 μL of 20 μM fluorescent substrate (Dnp-Pro-Cha(β-cyclohexylalanyl)-Gly-Cys(Me)-His-Ala-Lys(Nma)-NH2) prepared in the assay buffer B, followed by reaction for 5 hours at 37° C.

For assay [5], the target named is T5, Human MMP3 (Homo sapiens, UniProt P08254).
T5 construct: purchased Calbiochem 444217
Put plainly: MMP3 inhibition experiment. The note with it: concentration required for 50% inhibition of enzyme activity; read-out: IC50 value MMP-3. The procedure:
(§1) MMP inhibition experiment may be carried out using a fluorescent synthetic substrate according to, for example, the methods of Bickett et al. (D. Mark Bickett et al., Anal. Biochem., 1993, 212, 58-64) and Nagase et al. (H. Nagase et al., J. Biol. Chem., 1994, 269, 20952-20957). The methods of inhibition experiments carried out for various MMPs are described below.
Human MMP3 (Calbiochem #444217) in 90 μL (5 ng) prepared in the assay buffer A was added to 90 μL of 20 μM fluorescent substrate NFF-3(MOCAc-Arg-Pro-Lys-Pro-Val-Glu-Nva-Trp-Arg-Lys(Dnp)-NH2, Peptide Institute, Inc., #3168-v) prepared in the assay buffer B, followed by reaction for 5 hours at 37° C.

Assay [6] concerns the target T6, Human MMP14 (Homo sapiens, UniProt P50281).
T6 construct: purchased Biogenesis or Calbiochem 5980-1461 or 475935
The experiment in a line: MMP14 inhibition experiment. The conditions noted are these: concentration required for 50% inhibition of enzyme activity; read-out: IC50 value MMP-14. The procedure: as §1
Human MMP14 (Biogenesis #5980-1461 or Calbiochem #475935) in amount of 90 μL (4 ng) prepared in the assay buffer A was added to 90 μL of 20 μM fluorescent substrate (Dnp-Pro-Cha-Gly-Cys(Me)-His-Ala-Lys(Nma)-NH2) prepared in the assay buffer B, followed by reaction for 5 hours at 37° C.

In assay [7] the target is T7, TACE (Homo sapiens, UniProt P78536).
T7 construct: made in house; host or cells: mammalian cells or insect cells
The experiment in a line: TACE inhibition experiment (in vitro).

For assay [8], the target named is T8, Human MMP2 (Homo sapiens, UniProt P08253).
T8 construct: purchased Calbiochem 444213
T8 sequence (P08253 110-660): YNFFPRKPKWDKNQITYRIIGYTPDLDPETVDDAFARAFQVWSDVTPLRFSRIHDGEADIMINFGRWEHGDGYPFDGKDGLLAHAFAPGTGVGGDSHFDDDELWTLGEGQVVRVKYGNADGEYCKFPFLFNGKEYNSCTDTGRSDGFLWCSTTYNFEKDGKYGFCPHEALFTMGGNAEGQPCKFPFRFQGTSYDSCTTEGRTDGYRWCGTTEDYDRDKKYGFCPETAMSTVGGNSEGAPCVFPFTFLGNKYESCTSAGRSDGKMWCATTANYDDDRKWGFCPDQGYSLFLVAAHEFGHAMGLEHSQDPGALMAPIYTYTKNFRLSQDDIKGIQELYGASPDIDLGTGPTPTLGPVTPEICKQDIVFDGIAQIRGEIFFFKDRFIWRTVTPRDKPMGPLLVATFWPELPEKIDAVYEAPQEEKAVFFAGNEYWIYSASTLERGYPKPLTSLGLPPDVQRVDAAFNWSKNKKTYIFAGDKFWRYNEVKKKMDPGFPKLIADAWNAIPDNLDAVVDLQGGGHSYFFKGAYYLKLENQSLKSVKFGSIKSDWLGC
The experiment in a line: MMP2 inhibition experiment. The conditions noted are these: concentration required for 50% inhibition of enzyme activity; read-out: IC50 value MMP-2.
Procedure: This enzyme solution in amount of 10 μL was diluted to 90 μL with the assay buffer A, which was added to 90 μL of 20 μM fluorescent substrate (MOCAc((7-methoxycoumarin-4-yl)acetyl)-Pro-Leu-Gly-Leu-A2pr(Dnp)-Ala-Arg-NH2, Peptide Institute, Inc., #3163-v) prepared in the assay buffer B, followed by reaction for 5 hours at 37° C.

[9] abbreviates: concentration required for 50% inhibition of enzyme activity, read-out: IC50 value MMP-13.
Setting [10] is: concentration required for 50% inhibition of enzyme activity.

T7 sequence (P78536 215-824): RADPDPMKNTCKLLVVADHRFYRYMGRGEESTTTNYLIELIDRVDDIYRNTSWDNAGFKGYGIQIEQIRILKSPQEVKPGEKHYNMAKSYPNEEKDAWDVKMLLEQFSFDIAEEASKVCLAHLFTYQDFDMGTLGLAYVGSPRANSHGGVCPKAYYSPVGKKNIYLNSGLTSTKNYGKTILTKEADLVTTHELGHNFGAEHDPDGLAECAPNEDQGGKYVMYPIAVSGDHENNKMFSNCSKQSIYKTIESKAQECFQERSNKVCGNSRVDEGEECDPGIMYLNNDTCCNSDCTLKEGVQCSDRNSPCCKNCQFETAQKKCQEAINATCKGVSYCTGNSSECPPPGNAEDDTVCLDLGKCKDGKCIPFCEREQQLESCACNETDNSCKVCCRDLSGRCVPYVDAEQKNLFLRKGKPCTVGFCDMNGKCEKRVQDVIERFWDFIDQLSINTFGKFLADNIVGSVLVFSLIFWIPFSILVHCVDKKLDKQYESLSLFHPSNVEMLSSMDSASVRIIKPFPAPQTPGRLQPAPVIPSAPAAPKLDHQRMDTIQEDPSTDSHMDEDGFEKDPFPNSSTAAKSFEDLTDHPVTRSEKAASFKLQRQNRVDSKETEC
T1 sequence (P14780 107-707 limits assumed): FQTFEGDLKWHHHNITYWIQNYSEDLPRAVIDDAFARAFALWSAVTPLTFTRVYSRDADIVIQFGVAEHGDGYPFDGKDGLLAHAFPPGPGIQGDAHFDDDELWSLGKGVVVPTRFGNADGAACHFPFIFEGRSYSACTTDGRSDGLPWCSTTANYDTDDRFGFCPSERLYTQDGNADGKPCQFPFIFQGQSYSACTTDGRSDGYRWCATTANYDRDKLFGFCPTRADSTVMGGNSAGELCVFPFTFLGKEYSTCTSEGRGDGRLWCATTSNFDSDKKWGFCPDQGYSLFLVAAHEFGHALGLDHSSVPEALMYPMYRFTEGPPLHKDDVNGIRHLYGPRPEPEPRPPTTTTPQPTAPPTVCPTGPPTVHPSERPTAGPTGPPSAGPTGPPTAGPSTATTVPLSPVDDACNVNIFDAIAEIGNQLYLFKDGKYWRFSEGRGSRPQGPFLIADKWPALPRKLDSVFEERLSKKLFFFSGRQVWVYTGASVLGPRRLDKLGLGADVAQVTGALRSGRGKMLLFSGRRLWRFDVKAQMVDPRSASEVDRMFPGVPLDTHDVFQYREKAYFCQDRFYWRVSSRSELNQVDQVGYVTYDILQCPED
T5 sequence (P08254 100-272 limits assumed): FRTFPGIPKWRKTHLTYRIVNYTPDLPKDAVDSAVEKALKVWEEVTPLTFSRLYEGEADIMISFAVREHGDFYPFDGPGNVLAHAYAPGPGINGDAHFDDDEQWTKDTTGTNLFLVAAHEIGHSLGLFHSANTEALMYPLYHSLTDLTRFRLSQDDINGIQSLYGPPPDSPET

As a reminder, the IC50 is the concentration that inhibits the measured activity by half. For the molecule `Cc1cc(COc2ccc(S(=O)(=O)CC(C3CCC(=NOC=O)CC3)N(O)C=O)cc2)c2ccccc2n1` (centres unmarked) [Example I-13], the IC50 in assay [1] worked out at 28 µM; in assay [2] it was 0.7 µM; in assay [3] (setting [9]) it was 10 µM; in assay [4] it was 60 µM; in assay [5], 3 µM; in assay [6] it was 40 µM. Besides, the values for the IC50 in assay [7] and in assay [8] were 0.021 µM and 40 µM, respectively.

Turning to `Cc1cc(COc2ccc(S(=O)(=O)CC(C3CCC(=O)CC3)N(O)C=O)cc2)c2ccccc2n1` (centres unmarked) [Example I-11, N-Hydroxy-N-{2-[4-(2-methylquinolin-4-ylmethoxy)benzenesulfonyl]-1-(4-oxocyclohexyl)ethyl}formamide], the IC50 stood at 28 µM in assay [1] (setting [10]); 0.6 µM in assay [2]; 7 µM in assay [3] (setting [9]); 45 µM in assay [4]; 2 µM in assay [5]; 35 µM in assay [6]. The IC50 in assay [7] (setting [10]) is 0.02 µM; in assay [8], 30 µM.

Regarding `COc1cc(C)cc(COc2ccc(S(=O)(=O)CC(C=C3CCC4(CC3)OCCO4)N(O)C=O)cc2)c1` (centres unmarked) [Example I-95], the IC50 in assay [1], in assay [2], in assay [3] (setting [9]), in assay [4], in assay [5] and in assay [6] was over 100 µM in each case. For the same molecule, the IC50 is 1.5 µM in assay [7] and over 100 µM in assay [8].

In the case of `COc1cc(C)cc(COc2ccc(S(=O)(=O)CC(CC3CCC4(CC3)OCCO4)N(O)C=O)cc2)c1` (centres unmarked) [Example I-93], the IC50 is 30 µM in assay [1]; 20 µM in assay [2]; 12 µM in assay [3] (setting [9]); 60 µM in assay [4]; 15 µM in assay [5]; 33 µM in assay [6]. For the same molecule, the values for the IC50 in assay [7] and in assay [8] were 0.3 µM and 10 µM, respectively.

As for `CON=C1CCC(C(CS(=O)(=O)c2ccc(OCc3cc(C)nc4ccccc34)cc2)N(O)C=O)CC1` (centres unmarked) [Example I-12], the IC50 turned out to be 28 µM in assay [1]; 2 µM in assay [2]; 10 µM in assay [3] (setting [9]); 45 µM in assay [4]; 3 µM in assay [5]; 35 µM in assay [6]. Further, the IC50 in assay [7] worked out at 0.07 µM; in assay [8], 30 µM.

As for `Cc1cc(COc2ccc(S(=O)(=O)CC(C=C3CCSCC3)N(O)C(N)=O)cc2)c2ccccc2n1` (centres unmarked) [Example I-125, 1-hydroxy-1-{2-[4-(2-methylquinolin-4-ylmethoxy)benzenesulfonyl]-1-(tetrahydrothiopyran-4-ylidenemethyl)ethyl}urea], the IC50 in assay [1], in assay [2], in assay [3] (setting [9]), in assay [4], in assay [5] and in assay [6] was over 100 µM each time. For the same molecule, the values for the IC50 in assay [7] and in assay [8] were 0.63 µM and over 100 µM, respectively.

Turning to `Cc1cc(COc2ccc(S(=O)(=O)CC(CC3CCC(=O)CC3)N(O)C=O)cc2)cc(C)n1` (centres unmarked) [Example I-113], the IC50 in assay [1] worked out at 70 µM; in assay [2] it was 6 µM; in assay [3] (setting [9]), 2.3 µM; in assay [4], 60 µM; in assay [5], 8 µM; in assay [6], 60 µM. In addition, the IC50 in assay [7] is 0.13 µM; in assay [8], 2 µM.

Regarding `Cc1cc(COc2ccc(S(=O)(=O)CC(C=C3CCC(=O)CC3)N(O)C=O)cc2)c2ccccc2n1` (centres unmarked) [Example I-3, N-Hydroxy-N-[2-{4-(2-methylquinolin-4-ylmethoxy)benzenesulfonyl}-1-(4-oxocyclohexylidenemethyl)ethyl]formamide], the IC50 in assay [1] (setting [10]) is 50 µM; in assay [2], 2.5 µM; in assay [3] (setting [9]) it was 22 µM; in assay [4], over 100 µM; in assay [5] it was 6.3 µM; in assay [6] it was 43 µM. In assay [7] (setting [10]), this molecule displayed an IC50 of 0.0035 µM.

On to `Cc1cc(COc2ccc(S(=O)(=O)N3CCSC(C)(C)[C@@H]3C(=O)NO)cc2)cc(C)n1` [compound 1, reference compound], for which the IC50 in assay [1] (setting [10]) is 10 µM; in assay [2], 0.02 µM; in assay [3] (setting [9]), 0.2 µM; in assay [4] (setting [10]), 20 µM; in assay [5] it was 0.08 µM; in assay [6] it was 8 µM. This molecule also yielded an IC50 in assay [7] (setting [10]) of 0.01 µM.

For `CC[C@H](C)[C@H](NC(=O)[C@H](CC(C)C)[C@H](C(C)C)N(O)C=O)C(=O)Nc1ccccn1` [compound 3, (2R,3S)-3-(formylhydroxyamino)-2-(2-methyl-1-propyl)-4-methylpentanoic acid [(1S,2S)-2-methyl-1-(pyridin-2-ylcarbamoyl)-1-butyl]amide, reference compound], the half-maximal inhibitory concentration (IC50) in assay [1] worked out at 0.03 µM; in assay [2], 0.013 µM; in assay [3] (IC50 value MMP-13, concentration required for 50% inhibition of enzyme activity), 0.01 µM; in assay [4], 0.045 µM; in assay [5], 0.03 µM; in assay [6], 0.07 µM. The molecule also gave a half-inhibitory concentration (IC50) in assay [7] of 0.035 µM.

Take `C=C1CCC(C(CS(=O)(=O)c2ccc(OCc3cc(C)nc(C)c3)cc2)N(O)C=O)CC1` (centres unmarked) [Example I-4, N-[2-{4-(2,6-dimethylpyridin-4-ylmethoxy)benzenesulfonyl}-1-(4-methylenecyclohexyl)ethyl]-N-hydroxyformamide]: the IC50 in assay [1] was 40 µM; in assay [2], 2 µM; in assay [3] (setting [9]) it was 2.5 µM; in assay [4] it was over 100 µM; in assay [5], 5 µM; in assay [6], 43 µM. Further, in assay [7], the IC50 came to 0.06 µM.

Regarding `C=C1CCC(C(CS(=O)(=O)c2ccc(OCc3cc(C)cc(OC)c3)cc2)N(O)C=O)CC1` (centres unmarked) [Example I-7, N-Hydroxy-N-[2-{4-(3-methoxy-5-methylbenzyloxy)benzenesulfonyl)-1-(4-methylenecyclohexyl)ethyl]formamide], the half-maximal inhibitory concentration (IC50) is 30 µM in assay [1]; 6 µM in assay [2]; 10 µM in assay [3] (setting [9]); 43 µM in assay [4]; 20 µM in assay [5]; 40 µM in assay [6]. In assay [7], half-maximal inhibition (IC50) was put at 0.2 µM.

In the case of `C=C1CCC(C(CS(=O)(=O)c2ccc(OCc3cc(C)cc(C)c3)cc2)N(O)C=O)CC1` (centres unmarked) [Example I-5, N-[2-{4-(3,5-Dimethylbenzyloxy)benzenesulfonyl}-1-(4-methylenecyclohexyl)ethyl]-N-hydroxyformamide], the 50% inhibitory concentration (IC50) in assay [1] was determined as 22 µM; in assay [2], 5 µM; in assay [3] (setting [9]) it was 10 µM; in assay [4], 33 µM; in assay [5], 20 µM; in assay [6], 25 µM. It took 0.43 µM to reach half-maximal inhibition in assay [7] (IC50).
